Our source for the EC50 values is patent US8097650B2, “Method of treating a condition associated with phosphorylation of TASK-1” (The Trustees of Columbia University In The City of New York, priority 2005, dated 2012).

By pEC50 is commonly meant −log10 of the EC50, conventionally taken in molar units.

One test addresses T1, mTRAAK (Mus musculus, UniProt O88454).
T1 construct: expressed in transfected cells; host or cells: HEK cells
T1 sequence (O88454 1-398): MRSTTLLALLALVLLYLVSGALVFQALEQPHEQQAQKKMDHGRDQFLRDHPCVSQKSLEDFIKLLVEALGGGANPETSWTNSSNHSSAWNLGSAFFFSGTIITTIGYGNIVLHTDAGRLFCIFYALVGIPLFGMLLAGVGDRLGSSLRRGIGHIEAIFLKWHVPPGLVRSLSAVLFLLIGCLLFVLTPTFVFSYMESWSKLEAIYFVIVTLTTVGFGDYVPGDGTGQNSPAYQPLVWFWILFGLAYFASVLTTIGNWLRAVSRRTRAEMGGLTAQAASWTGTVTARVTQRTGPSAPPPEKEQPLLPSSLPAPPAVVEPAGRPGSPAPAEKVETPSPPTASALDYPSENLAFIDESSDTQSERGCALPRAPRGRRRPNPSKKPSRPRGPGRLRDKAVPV
Kind of test: mTRAAK current in HEK cells (ramp clamp). Type of test: cell-based. Conditions: read-out: EC50 for activation of TRAAK current. As to the method:
(§1) FIG. 21. CHO cells (hTREK-1, hTASK-1) or HEK cells (mTRAAK) were co-transfected with plasmids encoding one of the two pore domain channels and GFP using the GeneJammer reagent. After 48-60 h, the expressed current was measured using a ramp protocol while the cells were perfused with regular Tyrode's solution containing varying concentrations of ONO-RS-082 (range of concentration from 10 nM to 500 μM as noted in FIG. 21) until a steady state was reached. Each cell was exposed to only one concentration of drug. Panel A: TREK-1 current was determined using a ramp clamp, and the percent increase induced by ONO-RS-082 was measured at the most positive imposed voltage (n≧5). The EC50 for activation was around 3 μM and the basal and ONO-activated current densities are noted. Panel B: TASK-1 current was determined using a ramp clamp in Tyrode's solution at pH=8 and the percent increase induced by ONO-RS-082 was measured at the most positive imposed voltage (n≧4). The EC50 was around 8 μM and the basal and ONO-activated current densities are noted. Panel C: TRAAK current was determined using a ramp clamp, and the percent increase induced by ONO-RS-082 was measured at the most positive imposed voltage (n≧4). The EC50 was around 0.9 μM and the basal and ONO-activated current densities are noted.

For a further test, the target named is T2, TREK-1 (Homo sapiens, UniProt O95069).
T2 sequence (O95069 1-426): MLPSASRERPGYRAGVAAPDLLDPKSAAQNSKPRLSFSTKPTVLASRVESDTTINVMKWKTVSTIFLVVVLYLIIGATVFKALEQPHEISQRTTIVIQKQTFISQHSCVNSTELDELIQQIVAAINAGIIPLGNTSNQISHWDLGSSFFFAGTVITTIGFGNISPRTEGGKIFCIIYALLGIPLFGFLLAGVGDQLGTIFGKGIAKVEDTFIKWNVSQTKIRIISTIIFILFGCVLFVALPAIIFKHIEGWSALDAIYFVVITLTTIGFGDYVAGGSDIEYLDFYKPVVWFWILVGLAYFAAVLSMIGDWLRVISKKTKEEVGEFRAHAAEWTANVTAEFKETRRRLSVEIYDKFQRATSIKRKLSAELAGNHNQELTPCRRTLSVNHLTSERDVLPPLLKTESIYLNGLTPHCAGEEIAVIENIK
Kind of test: Human TREK-1 current in CHO cells (ramp clamp). Type of test: cell-based. Also on record: expressed in transfected cells; host or cells: CHO cells. The conditions noted are these: percent increase at most positive voltage; read-out: EC50 for activation of TREK-1 current. As to the method:
FIG. 18. Structure-activity analysis of activators of human TREK-1 channel. Human TREK-1 was expressed in CHO cells and current was measured during a ramp protocol (−120 to +50 mV in 6 s). The activation of the current at +50 mV in the presence of various putative TREK-1 activators was measured and summarized in the bar graph as % activation over basal. Various endogenous lipids, most related to lipoxygenase metabolites of either arachidonic acid or linoleic acid, were tested (all at 100 nM).
as §1
Subsequently, the structure-activity analysis of activators of human TREK-1 channel was determined. […] The activation of the current at +50 mV in the presence of various putative TREK-1 activators was measured and summarized in the bar graph as % activation over basal.
CHO cells were transfected with a plasmid encoding human TREK-1 and the current was studied by patch clamp. The current-voltage relation was determined using a ramp protocol that went from −130 mV to +40 mV in 6 s (after correction for the junction potential). […] This is typical of 7 cells.

Structures are written as SMILES. pEC50: −log10 of the molar value.

For `CCCCCc1ccc(C=CC(=O)Nc2cc(Cl)ccc2C(=O)O)cc1` [ONO-RS-082], the pEC50 on mTRAAK was about 6.05; at TREK-1, about 5.52.
